Data taken from patent US20100190735A1, “Mouthwash and Method of Using Same for the Treatment of Mucositis or Stomatitis” (priority 2006, published 2010).
Where a name gives a salt, the structure may show the parent alone. Read-outs that look alike come from different tables or passages of the source.

Assays:
[1] = in H2O, cited from earlier work
[2] = Storage stability of mouth rinse formulation B8: potency of the actives by HPLC; format: physicochemical
Source text: (§1) Quantification of the respective ingredients was done using high performance liquid chromatography (HPLC). A difference in calculated quantity of less than 5% from the intial formulation (i.e. time=0) amount was considered a “pass”, that is, indicative of minimal degradation. The relative standard deviation for the HPLC calculations was 3%.

[3] = Storage stability of formulation B8: preservative assay by HPLC; format: physicochemical
Source text: as §1

[4] = formulation B8, 2 months at 40° C.
[5] = formulation B8, 2 months at 40° C., 90 to 110% of label claim, less than 5% change
[6] = formulation B8, 2 months at room temperature
[7] = formulation B8, 2 months at room temperature, 90 to 110% of label claim, less than 5% change
[8] = formulation B8, 3 months at 40° C.
[9] = formulation B8, 3 months at 40° C., 90 to 110% of label claim, less than 5% change
[10] = formulation B8, 3 months at room temperature
[11] = formulation B8, 3 months at room temperature, 90 to 110% of label claim, less than 5% change
[12] = formulation B8, 4 months at 40° C.
[13] = formulation B8, 4 months at 40° C., 90 to 110% of label claim, less than 5% change
[14] = formulation B8, 4 months at room temperature, 90 to 110% of label claim, less than 5% change
[15] = formulation B8, 12 months at fridge 4° C.
[16] = formulation B8, 12 months at fridge 4° C., 90 to 110% of label claim, less than 5% change
[17] = formulation B8, 12 months at room temperature
[18] = formulation B8, 12 months at room temperature, 90 to 110% of label claim, less than 5% change
[19] = formulation B8, time = 0, limits 90 to 110% of label claim

SMILES	Preservative assay [3, 4]	Preservative assay [3, 6]	Solubility (Notes) ([1]; in words)	Potency (of label claim) [2, 4]	Potency Pass/fail [2, 5]	Potency (of label claim) [2, 6]	Potency Pass/fail [2, 7]	Potency (of label claim) [2, 8]	Potency Pass/fail [2, 9]	Potency (of label claim) [2, 10]	Potency Pass/fail [2, 11]	Potency (of label claim) [2, 12]	Potency Pass/fail [2, 13]	Potency Pass/fail [2, 14]	Potency (of label claim) [2, 15]	Potency Pass/fail [2, 16]	Potency (of label claim) [2, 17]	Potency Pass/fail [2, 18]	Potency (of label claim) ([2]; formulation B8, time = 0)	Potency Pass/fail [2, 19]	further results
C[C@@H]1C[C@H]2[C@@H]3CCC4=CC(=O)C=C[C@]4(C)[C@@]3(F)[C@@H](O)C[C@]2(C)[C@@]1(O)C(=O)COP(=O)(O)O [Dexamethasone sodium phosphate, Dexamethasone 21-phosphate disodium salt]	–	–	H2O soluble	–	–	–	–	–	–	–	–	–	–	–	–	–	–	–	–	–	–
CN(C)CCOC(c1ccccc1)c1ccccc1 [Diphenhydramine HCl]	–	–	–	100.2%	Pass (A difference in calculated quantity of less than 5% from the intial formulation (i.e. time=0) amount was considered a “pass”)	100.8%	Pass (A difference in calculated quantity of less than 5% from the intial formulation (i.e. time=0) amount was considered a “pass”)	101.7%	Pass (A difference in calculated quantity of less than 5% from the intial formulation (i.e. time=0) amount was considered a “pass”)	101.85%	Pass (A difference in calculated quantity of less than 5% from the intial formulation (i.e. time=0) amount was considered a “pass”)	100.1%	Pass (A difference in calculated quantity of less than 5% from the intial formulation (i.e. time=0) amount was considered a “pass”)	Pass (A difference in calculated quantity of less than 5% from the intial formulation (i.e. time=0) amount was considered a “pass”)	102.4%	Pass (A difference in calculated quantity of less than 5% from the intial formulation (i.e. time=0) amount was considered a “pass”)	103.0%	Pass (A difference in calculated quantity of less than 5% from the intial formulation (i.e. time=0) amount was considered a “pass”)	100.6%	Pass (A difference in calculated quantity of less than 5% from the intial formulation (i.e. time=0) amount was considered a “pass”)	–
CCN(CC)CC(=O)Nc1c(C)cccc1C [Lidocaine HCl]	–	–	–	98.1%	Pass (A difference in calculated quantity of less than 5% from the intial formulation (i.e. time=0) amount was considered a “pass”)	99.7%	Pass (A difference in calculated quantity of less than 5% from the intial formulation (i.e. time=0) amount was considered a “pass”)	102.15%	Pass (A difference in calculated quantity of less than 5% from the intial formulation (i.e. time=0) amount was considered a “pass”)	101.8%	Pass (A difference in calculated quantity of less than 5% from the intial formulation (i.e. time=0) amount was considered a “pass”)	102.9%	Pass (A difference in calculated quantity of less than 5% from the intial formulation (i.e. time=0) amount was considered a “pass”)	Pass (A difference in calculated quantity of less than 5% from the intial formulation (i.e. time=0) amount was considered a “pass”)	101.4%	Pass (A difference in calculated quantity of less than 5% from the intial formulation (i.e. time=0) amount was considered a “pass”)	101.4%	Pass (A difference in calculated quantity of less than 5% from the intial formulation (i.e. time=0) amount was considered a “pass”)	100.4%	Pass (A difference in calculated quantity of less than 5% from the intial formulation (i.e. time=0) amount was considered a “pass”)	–
C[C@@H]1[C@H](O)[C@@H](C)/C=C/C=C/CC/C=C/C=C/C=C/C=C/C(O[C@H]2O[C@H](C)[C@@H](O)[C@H](N)[C@@H]2O)CC2O[C@](O)(CC(O)C(O)CCC(O)CC(O)CC(O)CC(=O)O[C@H]1C)CC(O)C2C(=O)O (stereo partly drawn) [Nystatin]	–	–	slightly soluble-	98.4%	Fail	106.8%	Pass (A difference in calculated quantity of less than 5% from the intial formulation (i.e. time=0) amount was considered a “pass”)	88.8%	Fail	106%	Pass (A difference in calculated quantity of less than 5% from the intial formulation (i.e. time=0) amount was considered a “pass”)	92.4%	Fail	Pass (A difference in calculated quantity of less than 5% from the intial formulation (i.e. time=0) amount was considered a “pass”)	101.7%	Pass (A difference in calculated quantity of less than 5% from the intial formulation (i.e. time=0) amount was considered a “pass”)	109.6%	Pass (A difference in calculated quantity of less than 5% from the intial formulation (i.e. time=0) amount was considered a “pass”)	108.5%	Pass (A difference in calculated quantity of less than 5% from the intial formulation (i.e. time=0) amount was considered a “pass”)	Potency (of label claim) ([2]; formulation B8, 4 months at room temperature): 105.3%; Solubility (Notes) [1]: 4 mg/ml in H2O

Continued, in another order:

Preservative assay [3, 4]	Preservative assay [3, 6]	SMILES	Solubility (Notes) ([1]; in words)	Potency (of label claim) [2, 4]	Potency Pass/fail [2, 5]	Potency (of label claim) [2, 6]	Potency Pass/fail [2, 7]	Potency (of label claim) [2, 8]	Potency Pass/fail [2, 9]	Potency (of label claim) [2, 10]	Potency Pass/fail [2, 11]	Potency (of label claim) [2, 12]	Potency Pass/fail [2, 13]	Potency Pass/fail [2, 14]	Potency (of label claim) [2, 15]	Potency Pass/fail [2, 16]	Potency (of label claim) [2, 17]	Potency Pass/fail [2, 18]	Potency (of label claim) ([2]; formulation B8, time = 0)	Potency Pass/fail [2, 19]	further results
95%	97.6%	COC(=O)c1ccc(O)cc1 [Methyl paraben]	–	–	–	–	–	–	–	–	–	–	–	–	–	–	–	–	–	–	Preservative assay [3, 8]: 95.7%; Preservative assay [3, 10]: 100.1%; Preservative assay [3, 12]: 97.1%; Preservative assay [3, 17]: Methyl P - 98.2%; Preservative assay ([3]; formulation B8, time = 0): paraben: 100.8%
99.1%	99.3%	CCCOC(=O)c1ccc(O)cc1 [Propyl paraben]	–	–	–	–	–	–	–	–	–	–	–	–	–	–	–	–	–	–	Preservative assay [3, 8]: 99.4%; Preservative assay [3, 10]: 100.4%; Preservative assay [3, 12]: 99.2%; Preservative assay [3, 17]: Propul P - 99.1%; Preservative assay ([3]; formulation B8, time = 0): paraben: 99.1%
